The record followed here is a melting point compilation (Tetko et al.; mined from patent text by program, amines drawn as free bases though some values may be those of a salt).

With `O=C(O)c1ccc2c3c(ccc(C(O)=NC4CCCCC4)c13)CC2`, the melting point was in the range of 264 to 265 °C. Compound `c1ccc2c(OCCN3CCCCC3)c3ccccc3c(OCCN3CCCCC3)c2c1` had a melting point of 103 to 106 °C. In turn, `O=Cc1cc(F)cc2c1OCCC2` had a melting point of 55 to 57 °C.

On to `CCn1cc(CN(C(=O)C2CCc3cc(OC)ccc32)c2ccc(C(C)C)cc2)cn1` (stereo not drawn), for which the melting point lay in the range of 115 to 116 °C. Under `CCCn1nc2oc(=O)cc(C)c2c1C` stands 108 to 110 °C. Under `OCC1Cc2c([nH]c3ccccc23)CN1` (stereo not drawn) stands 191 to 193 °C; under `O=C(c1cccs1)c1cnn2c(-c3cccc(-c4cc[nH]n4)c3)ccnc12`, 129 °C.

Compound `Cn1c(SCCO)nnc1SCCO` came in with a melting point of 87 to 88 °C.

For the compound `CCCCC(C)(CC)C(=O)C(Oc1ccc(-c2ccccc2)cc1)n1cnnc1` (stereo not drawn), the melting point was in the range of 67 to 68 °C.

In the case of `Oc1cnc2[nH]ccc2c1`, the melting point was in the range of 206 to 209 °C. As for `CNCC1CN(c2c(F)cc3c(=O)c(C(=O)O)cn(-c4ccc(F)cc4F)c3c2F)CCO1` (stereo not drawn), the melting point fell in the range of 224 to 227 °C. Regarding `Fc1ccc(-c2nc[nH]c2-c2ccc(F)cc2)cc1`, the melting point fell in the range of 234 to 236 °C. Next, `CCCN1CCCC(c2ccc(OC)c3c2CC(=O)N3)C1` (stereo not drawn): 120 °C. Next, `O=C(Nc1ccccc1)C(=O)N1CCC(Cc2ccccc2)CC1`: 125 to 128 °C; `C=CCn1c(Cc2ccccc2)c(CC)c(=O)[nH]c1=O`: 164 to 165 °C. Under `O=C1c2cccc(OCc3ccccc3)c2-c2nn(CCNCCO)c3ccc(Cl)c1c23` stands 165 to 167 °C; under `CCOC(=O)[C@@H](NC(=O)c1cc(-c2ncc(C(F)(F)F)cc2Cl)ccc1Cl)C(C)C`, 90 to 92 °C.

As for `FC(F)(F)Oc1ccc(-n2cnc3ccc(-c4nnc(N5CCOCC5)o4)cc32)cc1`, the melting point fell in the range of 202 to 203 °C.

Consider `Nc1cc(C(=O)c2ccccc2)ccc1N1CCCC1`, for which the melting point came out at 112 °C.

Take `Cc1nc(-c2ccc(C#N)cc2)sc1C(=O)N1CO[C@@](Cn2cncn2)(c2ccc(F)cc2F)[C@H]1C`: the melting point lay in the range of 200 to 201 °C. Compound `CC(C)=NOCc1nc2c(N)nc3cc(-c4ccccc4)cnc3c2n1CC(C)C` yielded a melting point of 196 to 197 °C. `Oc1cc(-c2ccc(F)cc2)nc(-c2ccccn2)n1` registered a melting point of 197 to 198 °C. Next, `FC(F)(F)CNc1ccc2c(c1)N1CCN=C1S2`: 212 °C. Next, `c1ccc(COc2ccc(OCCN3CCN(c4ccccc4)CC3)cc2)cc1`: 116 to 119 °C; `CCCCCCOc1ccc(CBr)c2c(OCCCCCC)ccc(CBr)c12`: 105 to 107 °C. `Cc1c(S(=O)c2cc(Cl)c(Cl)cc2Cl)cc(C(C)(C)C)c(O)c1C(=O)Nc1ccc([N+](=O)[O-])cc1Cl` (stereo not drawn): the melting point lay in the range of 245 to 246 °C. Under `CC(C)Cn1c(CN2C(=O)c3ccccc3C2=O)c(OCCCC(F)(F)F)c2cc(OCc3ccccc3)ccc2c1=O` stands 131 to 132 °C. `Cc1csc(NC(=O)N(C)C)n1` gave a melting point of 97 to 98 °C.

The compound `O=C(c1c[nH]c(C(=O)CCl)c1)c1ccc2ccccc2c1` registered a melting point of 175 to 177 °C.

Compound `CCOC(=O)OC1CCC2(C)C3=C(CCC2C1)C1=CCC(C(C)CCCC(C)C)C1(C)CC3` (stereo not drawn) had a melting point of 101 to 106 °C. Next, `C/C=C/C(=O)OC(COc1ccc(C(=O)c2ccccc2)c(O)c1)COc1ccc(C(=O)c2ccccc2)c(O)c1`: 99 to 103 °C.

In turn, `N#Cc1cnn2c(C(F)(F)F)cc(-c3ccc(C(F)(F)F)c(F)c3)nc12` displayed a melting point of 184 °C. Next, `CC(=O)On1c(C(F)(F)F)nc2ncc(Cl)cc21`: 103 °C; `COc1ccc([N+](=O)[O-])nc1C`: 96 to 98 °C. Consider `O=C(Nc1ccc(-c2ncc(-c3ccc(NC(=O)C4CCCCCC4)cc3)[nH]2)cc1)c1ccc(Cl)c(Cl)c1`, for which the melting point was in the range of 304 to 306 °C. Consider `O=[N+]([O-])c1ccc(OCCN2CCN(c3nsc4ccccc34)CC2)cc1`, for which the melting point is 115 °C. Under `CCOc1ccc(OCc2ccc(OCc3nc(-c4ccccc4)oc3C)cc2)c(CCC(=O)O)c1` stands 115 to 116 °C. In turn, `O=c1ccc(C(F)(F)F)cn1Cc1ccccc1NCCO` showed a melting point of 114 to 115 °C. Next, `CN(C)c1c(F)c(F)c(F)c2c1c(=O)c(C(=O)O)cn2C1CC1`: 160 to 163 °C.

For the compound `C(=CCN(C1CCCCC1)C1CCCCC1)CN(C1CCCCC1)C1CCCCC1`, the melting point fell in the range of 136 to 138 °C. `[N-]=[N+]=Nc1nc(N)c2ncn(COCCO)c2n1` displayed a melting point of 191 to 192 °C. Compound `Cc1nc2ccccc2c(=O)n1NC(=O)Nc1ccc(Cl)cc1` yielded a melting point of 228 to 230 °C. Regarding `CC1(c2cccc(N)c2)OCCO1`, the melting point lay within 75 to 77 °C. `NC1=CCC(c2nc3c(-c4cnn(-c5ccc(F)cc5)c4)cccn3n2)(C2CCNCC2)C=C1` (stereo not drawn) displayed a melting point of 245 to 247 °C. Compound `O=C(NO)c1ccc(CNC(=O)c2[nH]c(-c3ccccc3)cc2-c2ccc([N+](=O)[O-])cc2)cc1` showed a melting point of 179 to 180 °C. `Cc1ccc(S(=O)(=O)OCC2Cc3cc(Cl)cc(-c4ccccc4)c3O2)cc1` (stereo not drawn): the melting point was 127 to 130 °C. Next, `O=C(Nc1ccccc1)c1nn(-c2cccc(C(F)(F)F)c2)ccc1=O`: 181 to 182 °C. The compound `CC(C)c1ccc(C2(OC(=O)C(C)(C)C)C(=O)c3ccccc3C2=O)c(OC(=O)C(C)(C)C)c1` came in with a melting point of 121 to 124 °C. The compound `O=c1[nH]c2ccc(-c3cccc(Cl)c3)cc2s1` had a melting point of 195 to 196 °C. For `COc1cc(C=O)cc(OCCCC(=O)O)c1OC`, the melting point was in the range of 90 to 92 °C.

As to `CCOC(=O)C1=C(C)NC(CSC(=O)c2ccc(N)cc2)=C(C(=O)OCC)C1c1cccc([N+](=O)[O-])c1` (stereo not drawn), the melting point is 78 to 80 °C. Next, `CCCCC1(N(C)C)CC=C(c2[nH]c3ccccc3c2CCNC(=O)CC(C)(C)C)CC1` (stereo not drawn): 139 to 142 °C; `CC(=O)OC(C)c1cccc2cc(C(=O)CBr)oc12` (stereo not drawn): 86 to 88 °C. For `O=C(CN1C(=O)c2ccccc2S1(=O)=O)OCCO`, the melting point lay within 125 to 126 °C. Regarding `CCc1cn(C2OC(CNC(=O)C(C)Oc3c(Cl)cc(Cl)c(OC)c3Cl)C(OC(=O)C(NC(=O)OC(C)(C)C)C(C)C)C2F)c(=O)[nH]c1=O` (stereo not drawn), the melting point fell in the range of 147 to 149 °C. Under `COc1cncnc1N1CCN(CCCc2c[nH]c3ccc(CNS(C)(=O)=O)cc23)CC1C` (stereo not drawn) stands 210 to 214 °C; under `CCOC(=O)COc1cccc(CN2C(=O)C3(COc4cc5c(cc43)CCO5)c3ccccc32)c1` (stereo not drawn), 45 to 46 °C; under `CC(=O)OC1CSC(Oc2cccc(-c3ccc(C#N)nc3)c2)C(OC(C)=O)C1OC(C)=O` (stereo not drawn), 130 °C. Under `Cc1cc(-c2cc(C(F)(F)F)[nH]n2)c(F)cc1Cl` stands 159 °C; under `O=[N+]([O-])c1ccc(Br)c(SC(F)(F)F)c1`, 118 °C; under `CCOC(=O)c1c(N2CCN(C(=O)c3cccs3)CC2)c2cccnc2n(C)c1=O`, 164 °C. Next, `Cc1ccc(-c2nc(-c3cnccc3C)sc2F)cc1`: 96 °C; `O=c1[nH]c2cc(Cl)cc(OCCNCc3ccccc3)c2[nH]1`: 192 to 193 °C; `COc1ccccc1Cc1nc2ccccc2c(=O)n1CCO`: 154 to 155 °C. Compound `CNC(=O)N1CC(Oc2ccc(Cl)cc2Cl)C1` yielded a melting point of 140 to 141 °C.

`CC1(C)C(=O)Nc2ccc(-c3cccc(C#N)c3F)cc21`: the melting point was 231 to 232 °C. Next, `CCOC(=O)c1c(Cl)c2ccc(C)nc2n(C)c1=O`: 108 to 111 °C; `Brc1ccc2c(c1)CC(Cc1ccccc1)O2` (stereo not drawn): 70 to 72 °C; `COCCNC(N)=Nc1ccccc1N1CCCCC1`: 218 to 220 °C.

Turning to `O=C(O)c1ccc(NCCCCCCCCCCc2ccccc2)cc1`, the melting point is 80 to 87 °C. Next, `CCCN(Cc1ccc(-c2ccccc2C2=NC(C)(C)CO2)cc1)C(c1ccccc1)(c1ccccc1)c1ccccc1`: 151 to 153 °C; `COc1cccc(C#Cc2nc(C)ccc2N)c1`: 165 to 166 °C; `Clc1cccc(-c2nc(Cl)c3ccccc3n2)c1`: 157 to 158 °C. Under `CCCCCCCCCCCCCCCCOC[C@H]1CCO[C@H](c2ccccc2)O1` stands 51 to 54 °C; under `Cc1cc(OCc2sc(-c3ccc(C(F)(F)F)cc3)nc2C)ccc1Cc1nn[nH]n1`, 165 °C; under `CC(C)(C)c1cc(CC=Cc2ccccc2)cc(C(C)(C)C)c1O`, 93 °C.

In turn, `O=C(COc1ccc(C(=O)CN2CCN(c3ccncc3)CC2)cc1)NCc1ccccc1` showed a melting point of 150 to 151 °C. Under `O=C1NC(=S)SC1=Cc1ccnc2ccccc12` stands 325 to 328 °C; under `CCCCCC(CC(=O)Nc1cc(C(=O)Nc2ccncc2)ccc1C(C)(C)C)c1c(OC)cccc1OC` (stereo not drawn), 169 to 172 °C. Under `O=C1C(c2ccccc2)=C(c2ccccc2)C(=O)N1c1cccc(Cl)c1` stands 144 to 145 °C; under `COC(=O)c1c(O)c(Br)c(Br)n1C`, 128 to 130 °C. Under `CC(C)Oc1ccc([N+](=O)[O-])cc1C(F)(F)F` stands 34 to 36 °C. `Cn1c(=O)n(C)c2cc3c(N4CCN(C(=O)Nc5ccc(Oc6ccccc6)cc5)CC4)ncnc3cc21` came in with a melting point of 250 to 255 °C. On to `CCCC=C(c1ccccc1N1CCCCC1)C(C(N)=O)c1ccc(C(=O)OCC)cc1` (stereo not drawn), for which the melting point fell in the range of 94 to 97 °C. Next, `Clc1ccc(-c2nc(-n3cccn3)oc2CCC2=NCCO2)cc1`: 79 to 80 °C. Next, `COc1cc(C)c2ccc(N3C(=O)C4=C(SCCS4)C3OC(=O)N3CCN(C)CC3)nc2n1` (stereo not drawn): 232 to 234 °C. Next, `BrCC=Cc1ccc(-c2cnc(CSCCOc3ccccc3)o2)cc1`: 88 to 91 °C; `COC(=O)c1ccc(CN2C(=O)C3(COc4cc5c(cc43)CCO5)c3ccccc32)cc1` (stereo not drawn): 136 to 140 °C.

A word on the melting point: it is the temperature, or range, at which the solid turns liquid.
